From patent publication EP0903346A1, “SYDNONE IMINE DERIVATIVES” (Chugai Seiyaku Kabushiki Kaisha, priority 1995, dated 1997)
Where two headings read alike, the source gives them in different places.

Assays:
isolated rat aorta = experiment: Test with the use of isolated rat aorta (relaxation of potassium chloride contraction); conditions: read-out: Rat aorta IC50
Experimental: The thoracic aorta was taken out from male Sprague Dawley rats weighing 450 to 600 g and cut into circular samples of 2 mm in width. […] The contraction reactions of the samples were isometrically recorded with FD pick-up. After 1 to 1.5 hours of equilibration, 30 mM potassium chloride was added to contract the tissue. […] As the test compounds, the invention compounds obtained in the above Examples were employed.

anesthetized rat = experiment: Blood pressure-lowering effect in anesthetized rat; type: in vivo; conditions: duodenal administration; for Blood pressure-lowering effect ED30: dose causing a decrease in the blood pressure by 30%; for Blood pressure-lowering effect Half duration: half duration at ED30 (recovery to 50% of the maximum decrease in blood pressure)
Experimental: Male Sprague Dawley rats weighing 280 to 450 g were anesthetized with sodium pentobarbital (50 mg/kg, i.p.) and fixed in the supine position. A canula was inserted into the trachea of each animal. Then the blood pressure of the animal was measured (AP-621G, Nippon Kohden Corp.) through a polyethylene tube (PE50) inserted into the right femoral artery via a pressure transducer (Life Kit DTS, DX-300, Nippon Kohden Corp.) and the heart rate was determined from the pulse wave (AT-610G, Nippon Kohden Corp.). A canula (PE10) for injecting the maintenance anesthetic drug (sodium pentobarbital 20 mg/kg/h) was inserted into the right femoral vein. The abdominal region was medianly sectioned and a canula (PE50 connected to a injection needle 23G) for duodenal drug administration was inserted thereinto and fixed with Aronalpha for surgical use. After 60-90 minutes of recovery period, the drug was administered into duodenum. After administering the drug, the blood pressure was measured until the average blood pressure returned to the level before the administration.
As the indication of the blood pressure-lowering effect of each drug, the dose causing a decrease in the blood pressure by 30%, based on the level before the administration, was calculated from the dose-response curve and employed as the 30% effective dose (ED30). Moreover, the time required for the recovery to the level corresponding to 50% of the maximum decrease in the blood pressure (half duration) was measured at each dose. Then the half duration at the above-mentioned ED30 was calculated and employed as the indication of the lasting time of the blood pressure-lowering effect (half duration at ED30).
As the test compounds, use was made of the compounds of the present invention obtained in the above Examples. Table C summarizes the results. Table C

[1] = tested on: rat ischemia-reperfusion model; experiment: Myocardial necrosis inhibitory effect in rat ischemia-reperfusion model; type: in vivo; design: LDH / CK: unit not given here; conditions: mean ± standard error; for NA/RA: necrosis area/risk area; for CK: serum creatine kinase activity after reflow; for LDH: serum lactate dehydrogenase activity after reflow
Experimental: Male Sprague Dawley rats weighing 270 to 410 g were anesthetized with sodium pentobarbital (50 mg/kg, i.p.) and fixed in the supine position. A canula was inserted into the trachea of each animal. Then the blood pressure of the animal was measured (AP-621G, Nippon Kohden Corp.) through a polyethylene tube (PE50, Becton Dickinson) inserted into the right femoral artery via a pressure transducer (Life Kit DTS, DX-300, Nippon Kohden Corp.) and the heart rate was determined from the pulse wave (AT-610G, Nippon Kohden Corp.). Two canulae (PE10 and PE50, Becton Dickinson) for injecting the maintenance anesthetic drug (sodium pentobarbital 20 mg/kg/h) and a coloring matter respectively were inserted into the right jugular vein. The left jugular vein was exposed for blood collection. The chest was opened by vertically sectioning the chest region from the third to fifth left ribs about 10 mm apart from the median line under artificial respiration with room air (Harvard respirator, model 683, rate : 60 strokes/min. tidal volume : 10 ml/kg body weight). Then the operative field was enlarged with a wound retractor and the heart sac was peeled off to thereby expose the heart. By using a curved round needle with thread for vascular tract (8mm, 6-0 black blaid silk, Matsuda Medical Industry), a thread of 4 to 5 mm in length was put in the left ventricle in the depth of 2 mm for ligating the coronary artery. After the completion of the operation, the animal was allowed to stand as such for 20 minutes or longer. After confirming that the blood pressure and the heart rate had been stabilized, the experiment was initiated.
In this experiment, use was made of eight groups of rats including: 1) a physiological saline (i.e., the solvent for SIN-1) group; 2) an SIN-1 (3 µg/kg/min) group; 3) another SIN-1 (10 µg/kg/min) group; 4) 1% DMSO-containing physiological saline (adjusted to pH 5 with hydrochloric acid, i.e., the solvent for the compounds of Examples 1 and 2) group; 5) a group of the compound of Example 1 (10 µg/kg/min); 6) another group of the compound of Example 1 (30 µg/kg/min); 7) a group of the compound of Example 2 (3 µg/kg/min); and 8) another group of the compound of Example 2 (10 µg/kg/min). Each drug was intravenously administered continuously for 75 minutes (from 15 minutes before the ligation of the coronary artery to the completion of the reflow) at a rate of 0.95 ml/h. Fifteen minutes after the initiation of the drug administration, the coronary artery was ligated and maintained for 30 minutes. The coronary artery was ligated by the snare method with the use of a polyethylene tube (PE160, Becton Dickinson) and a vascular clamp (C-17 grooved, Natsume). After 30-minutes reflow, the risk area (RA) and the necrosis area (NA) were measured.
The risk area and the necrosis area formed by ligating the coronary artery were measured by the double staining method with Evans blue and triphenyltetrazolium chloride (TTC) in the following manner. To clarify the risk area, the coronary artery was ligated again after the completion of the reflow. Subsequently, 1 ml of 5% Evans blue (Sigma) and a 1 M solution of KCl were successively injected into the jugular vein until the heart arrest. Thus, the non-risk area was stained dark blue. After the heart arrest, the heart was quickly taken out and washed with physiological saline. Then the left ventricle was separated and cut into circular slices of 3 mm in width with a trimming blade (Feather). To decide the necrosis area, these slices were incubated in a 0.1 M phosphate buffer (81 mM Na2HPO4: 19 mM NaH2PO4, pH 7.4) containing 1% TTC at 37°C for 5 minutes. Thus, living cells were exclusively stained red with TTC while the necrosis area was not stained. After staining with TTC, each wet slice was weighed, fixed with 20% formalin and then photographed while allowing to stand in physiological saline. […]

[2] = relaxation of continuous contraction due to 30 mM potassium chloride, thoracic aorta of male Sprague Dawley rats
[3] = 3 µg/kg/min intravenously for 75 minutes
[4] = 10 µg/kg/min intravenously for 75 minutes
[5] = 30 µg/kg/min intravenously for 75 minutes

## Cl.N=c1c[n+](N2CCOCC2)[n-]o1 [SIN-1, 3-morpholinosydnonimine hydrochloride, reference compound]
Isolated rat aorta; [2]
  IC50: 0.85 µM
Anesthetized rat
  Blood pressure-lowering effect ED30: 1.0 mg/kg
  Blood pressure-lowering effect Half duration: 75 min
[1]; [3]
  NA/RA: 18.5±4.3%
  CK: 3138±207
  LDH: 1082±60
[1]; [4]
  NA/RA: 19.3±5.2%
  CK: 2853±507
  LDH: 1196±166

## COc1ccc(CN2CCN([n+]3cc([N-]C(=O)CSC(C)=O)on3)CC2)c(OC)c1OC [Example 50, N-((Acetylthio)acetyl)-3-(4-(2,3,4-trimethoxyphenylmethyl)piperazin-1-yl)sydnonimine]
Isolated rat aorta; [2]
  IC50: 0.14 µM

## C[C@H](CSC(=O)c1ccccc1)C(=O)[N-]c1c[n+](N(C)C)no1 [Example 5, N-((S)-3-(Benzoylthio)isobutyryl)-3-dimethylaminosydnonimine]
Isolated rat aorta; [2]
  IC50: 0.57 µM

## CN1CCN([n+]2cc([N-]C(=O)CSc3cc(C(C)(C)C)c(O)c(C(C)(C)C)c3)on2)CC1 [Example 1, N-((3,5-Di-t-butyl-4-hydroxyphenylthio)acetyl)-3-(4-methylpiperazin-1-yl)sydnonimine]
Isolated rat aorta
  IC50: 0.65 µM
Anesthetized rat
  Blood pressure-lowering effect ED30: 5.5 mg/kg
  Blood pressure-lowering effect Half duration: 151 min
[1]; [4]
  NA/RA: 33.4±6.1%
  CK: 3237±803
  LDH: 1538±254
[1]; [5]
  NA/RA: 22.3±6.1 p<0.01 vs. 4%
  CK: 2772±496
  LDH: 1339±343

## COc1cc(CC(=O)N2CCN([n+]3cc([N-]C(=O)[C@H](C)CSC(C)=O)on3)CC2)cc(OC)c1OC [Example 25]
Isolated rat aorta; [2]
  IC50: 0.63 µM

## CC(=O)SC[C@@H](C)C(=O)[N-]c1c[n+](N2CCN(C(=O)[C@@H]3CSC(=O)N3)CC2)no1 [Example 28, N-((S)-3-(Acetylthio)isobutyryl)-3-(4-((R)-2-oxo-4-thiazolidinecarbonyl)piperazin-1-yl)sydnonimine]
Isolated rat aorta; [2]
  IC50: 0.71 µM

## COc1cc(CC(=O)N2CCN([n+]3cc([N-]C(=O)CSC(=O)c4ccccc4)on3)CC2)cc(OC)c1OC [Example 32]
Isolated rat aorta; [2]
  IC50: 0.045 µM

## CC1CCCC(C)N1[n+]1cc([N-]C(=O)CSc2cc(C(C)(C)C)c(O)c(C(C)(C)C)c2)on1 (centres unmarked) [Example 13, N-((3,5-Di-t-butyl-4-hydroxyphenylthio)acetyl)-3-(2,6-dimethylpiperidin-1-yl)sydnonimine]
Isolated rat aorta; [2]
  IC50: 0.55 µM

## COc1ccc(CN2CCN([n+]3cc([N-]C(=O)CSc4cc(C(C)(C)C)c(O)c(C(C)(C)C)c4)on3)CC2)cc1OC [Example 47, N-((3,5-Di-t-butyl-4-hydroxyphenylthio)acetyl)-3-(4-(3,4-dimethoxyphenylmethyl)piperazin-1-yl)sydnonimine]
Isolated rat aorta; [2]
  IC50: 0.94 µM

## C[C@H](CSC(=O)c1ccccc1)C(=O)[N-]c1c[n+](N2CCOCC2)no1 [Example 4, N-((S)-3-(Benzoylthio)isobutyryl)-3-morpholinosydnonimine]
Isolated rat aorta; [2]
  IC50: 0.023 µM

## CC(=O)SCC(=O)N1CCN([n+]2cc([N-]C(=O)CSC(=O)c3ccccc3)on2)CC1 [Example 30-D, 3-(4-(Acetylthio)acetyl)piperazin-1-yl)-N-((benzoylthio)acetylsydnonimine]
Isolated rat aorta; [2]
  IC50: 0.12 µM

## COc1cc(CCN(C)[n+]2cc([N-]C(=O)[C@H](C)CSC(=O)c3ccccc3)on2)cc(OC)c1OC [Example 64, N-((S)-3-(Benzoylthio)isobutyryl)-3-(N'-(2-(3,4,5-trimethoxyphenyl)ethyl)-N'-methylamino)sydnonimine]
Isolated rat aorta; [2]
  IC50: 0.91 µM

## COc1cc(CCN2CCN([n+]3cc([N-]C(=O)[C@H](C)CSC(=O)c4ccccc4)on3)CC2)cc(OC)c1OC [Example 45, N-((S)-3-(Benzoylthio)isobutyryl)-3-(4-(2-(3,4,5-trimethoxyphenyl)ethyl)piperazin-1-yl)sydnonimine]
Isolated rat aorta; [2]
  IC50: 0.78 µM

## C[C@H](CSC(=O)c1ccccc1)C(=O)[N-]c1c[n+](N2CCN(CCSC(=O)c3ccccc3)CC2)no1 [Example 52-B, N-((S)-3-(Benzoylthio)isobutyryl)-3-(4-(2-(benzoylthio)ethyl)piperazin-1-yl)sydnonimine]
Isolated rat aorta; [2]
  IC50: 0.42 µM

## CC(=O)SCC(=O)[N-]c1c[n+](N2CCN(C(=O)CSC(C)=O)CC2)no1 [Example 38-C, N-((Acetylthio)acetyl)-3-(4-((acetylthio)acetyl)piperazin-1-yl)sydnonimine]
Isolated rat aorta; [2]
  IC50: 0.23 µM

## CC(=O)SC[C@@H](C)C(=O)[N-]c1c[n+](N2CCN(C(=O)[C@H](C)CSC(=O)c3ccccc3)CC2)no1 [Example 29, N-((S)-3-(Acetylthio)isobutyryl)-3-(4-((S)-3-(benzoylthio)isobutyryl)piperazin-1-yl)sydnonimine]
Isolated rat aorta; [2]
  IC50: 0.63 µM

## CC1CCCC(C)N1[n+]1cc([N-]C(=O)CSC(=O)c2ccccc2)on1 (centres unmarked) [Example 16, N-((Benzoylthio)acetyl)-3-(2,6-dimethylpiperidin-1-yl)sydnonimine]
Isolated rat aorta; [2]
  IC50: 0.056 µM

## O=C(CSC(=O)c1ccccc1)[N-]c1c[n+](N2CCN(C(=O)CSC(=O)c3ccccc3)CC2)no1 [Example 31]
Isolated rat aorta; [2]
  IC50: 0.036 µM

## CC(=O)SC[C@@H](C)C(=O)[N-]c1c[n+](N2CCOCC2)no1 [Example 67, N-((S)-3-(Acetylthio)isobutyryl)-3-morpholinosydnonimine]
Isolated rat aorta; [2]
  IC50: 0.54 µM

## CC(=O)SC[C@@H](C)C(=O)[N-]c1c[n+](N2CCN(C(=O)CSc3cc(C(C)(C)C)c(O)c(C(C)(C)C)c3)CC2)no1 [Example 24-D]
Isolated rat aorta; [2]
  IC50: 0.47 µM

## COc1ccccc1N1CCN([n+]2cc([N-]C(=O)[C@H](C)CSC(=O)c3ccccc3)on2)CC1 [Example 11, N-((S)-3-(Benzoylthio)isobutyryl)-3-(4-(2-methoxyphenyl)piperazin-1-yl)sydnonimine]
Isolated rat aorta; [2]
  IC50: 0.16 µM

## COc1cc(CN2CCN([n+]3cc([N-]C(=O)CSC(C)=O)on3)CC2)cc(OC)c1OC [Example 48, N-((Acetylthio)acetyl)-3-(4-(3,4,5-trimethoxyphenylmethyl)piperazin-1-yl)sydnonimine]
Isolated rat aorta; [2]
  IC50: 0.11 µM
